Test results: the NIST ThermoML archive (doi:10.1016/j.fluid.2017.03.025)
Values joined by “and” are separate entries in the source; they are usually repeats but may differ in a detail not shown here. Identical values can stand only once.

Experiment: wn = mass fraction of the nth substance listed
Settings: discharge crucible method; for mass density / viscosity: 101 kPa, Liquid

[Zn] [zinc] + [Ga]
Settings | mass density | surface tension liquid-gas | viscosity
323 K, w1 = 0.036 | 6081 kg/m3 | 722.9 mN/m | 1.576 mPa·s
373 K, w1 = 0.036 | 6049 kg/m3 | 719.2 mN/m | 1.336 mPa·s
423 K, w1 = 0.036 | 6018 kg/m3 | 715.6 mN/m | 1.139 mPa·s
423 K, w1 = 0.25 | 6205 kg/m3 | 733 mN/m | 2.596 mPa·s
473 K, w1 = 0.036 | 5989 kg/m3 | 712 mN/m | 1.018 mPa·s
473 K, w1 = 0.25 | 6175 kg/m3 | 728.9 mN/m | 2.037 mPa·s
523 K, w1 = 0.036 | 5956 kg/m3 | 708.4 mN/m | 0.924 mPa·s
523 K, w1 = 0.25 | 6146 kg/m3 | 723.5 mN/m | 1.733 mPa·s
573 K, w1 = 0.036 | 5929 kg/m3 | 704.9 mN/m | 0.845 mPa·s
573 K, w1 = 0.25 | 6115 kg/m3 | 718.9 mN/m | 1.529 mPa·s
573 K, w1 = 0.5 | 6355 kg/m3 | 748.5 mN/m | 2.861 mPa·s
623 K, w1 = 0.036 | 5896 kg/m3 | 701.2 mN/m | 0.779 mPa·s
623 K, w1 = 0.25 | 6079 kg/m3 | 714.6 mN/m | 1.375 mPa·s
623 K, w1 = 0.5 | 6323 kg/m3 | 739.8 mN/m | 2.394 mPa·s
623 K, w1 = 0.75 | 6584 kg/m3 | 773.5 mN/m | 3.588 mPa·s
673 K, w1 = 0.036 | 5866 kg/m3 | 697.7 mN/m | 0.736 mPa·s
673 K, w1 = 0.25 | 6052 kg/m3 | 709.7 mN/m | 1.261 mPa·s
673 K, w1 = 0.5 | 6302 kg/m3 | 733.3 mN/m | 2.112 mPa·s
673 K, w1 = 0.75 | 6557 kg/m3 | 764.1 mN/m | 3.019 mPa·s
673 K, w1 = 0.9 | 6721 kg/m3 | 792.3 mN/m | 3.809 mPa·s
723 K, w1 = 0.036 | 5836 kg/m3 | 693.8 mN/m and 694.3 mN/m | 0.709 mPa·s and 0.699 mPa·s
723 K, w1 = 0.25 | 6024 kg/m3 and 6025 kg/m3 | 705.2 mN/m and 705.5 mN/m | 1.148 mPa·s and 1.159 mPa·s
723 K, w1 = 0.5 | 6277 kg/m3 and 6276 kg/m3 | 725.3 mN/m | 1.875 mPa·s and 1.871 mPa·s
723 K, w1 = 0.75 | 6537 kg/m3 and 6536 kg/m3 | 753.4 mN/m and 754 mN/m | 2.625 mPa·s
723 K, w1 = 0.9 | 6699 kg/m3 and 6700 kg/m3 | 780.5 mN/m and 780.4 mN/m | 3.225 mPa·s and 3.241 mPa·s
723 K, w1 = 1 | 6831 kg/m3 | 812.1 mN/m | 3.721 mPa·s
773 K, w1 = 0.036 | 5806 kg/m3 | 690.8 mN/m | 0.662 mPa·s
773 K, w1 = 0.25 | 5998 kg/m3 | 700.4 mN/m | 1.098 mPa·s
773 K, w1 = 0.5 | 6249 kg/m3 | 717.7 mN/m | 1.693 mPa·s
773 K, w1 = 0.75 | 6512 kg/m3 | 744.6 mN/m | 2.323 mPa·s
773 K, w1 = 0.9 | 6679 kg/m3 | 768.7 mN/m | 2.813 mPa·s
823 K, w1 = 0.9 | 6657 kg/m3 | 755.5 mN/m | 2.517 mPa·s
